Laboratory results taken from ChEMBL document CHEMBL3638961, “Oxazine derivatives” (2015).

The compounds below were run against Beta-secretase 1 (Homo sapiens, UniProt P56817) (assay: Inhitbition Assay: 48.5 µL of substrate peptide solution (Biotin-XSEVNLDAEFRHDSGC-Eu: X=ε-amino-n-capronic acid, Eu=Europium cryptate) was added to each well of 96-hole half-area plate (a black plate: Costar), and after addition of 0.5 µl of the test compound (dissolved in N,N'-dimethyl formaldehyde) and 1 µl of Recombinant human BACE1(R&D Systems), the reaction mixture was incubated at 30° C. for 3 hours. The substrate peptide was synthesized by reacting Cryptate TBPCOOH mono SMP (CIS bio international) with Biotin-XSEVNLDAEFRHDSGC (Peptide Institute, Inc.). The final concentrations of the substrate peptide and Recombinant human BACE1 were adjusted to 18 nmol/L and 7.4 nmol/L, respectively, and the reaction was performed in sodium acetate buffer (50 mmol/L sodium acetate, pH 5.0, 0.008% Triton X-100).After the incubation for reaction, 50 µl of 8.0 µg/ml Streptavidin-XL665 (CIS bio international) dissolved in phosphate buffer.).
Chain of Beta-secretase 1 (P56817 whole entry): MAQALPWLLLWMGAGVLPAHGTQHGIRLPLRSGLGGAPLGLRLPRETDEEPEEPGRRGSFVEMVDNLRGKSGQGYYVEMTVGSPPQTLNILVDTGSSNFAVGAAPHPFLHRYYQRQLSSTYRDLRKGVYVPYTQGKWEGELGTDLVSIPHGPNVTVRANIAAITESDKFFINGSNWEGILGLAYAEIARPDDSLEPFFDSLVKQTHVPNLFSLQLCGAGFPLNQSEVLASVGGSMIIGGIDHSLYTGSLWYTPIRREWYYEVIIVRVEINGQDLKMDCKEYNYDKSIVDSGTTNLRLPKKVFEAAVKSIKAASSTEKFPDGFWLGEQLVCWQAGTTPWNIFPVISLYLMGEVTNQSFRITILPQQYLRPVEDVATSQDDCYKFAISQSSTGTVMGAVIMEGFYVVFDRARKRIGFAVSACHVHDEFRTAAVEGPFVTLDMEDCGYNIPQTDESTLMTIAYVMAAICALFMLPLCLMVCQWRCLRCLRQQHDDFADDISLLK

Row | IC50 | SMILES
1 | < 30 µM | CC1=C[C@@](C)(c2cc(NC(=O)c3ccc(Cl)cn3)ccc2F)N=C(N)O1
2 | < 30 µM | CC1=C[C@@](C)(c2cc(NC(=O)c3ncc(C#N)cc3F)ccc2F)N=C(N)O1
3 | < 30 µM | C[C@@]1(c2cc(NC(=O)c3ncc(F)cc3F)ccc2F)CCOC(N)=N1
4 | < 30 µM | CC1=C[C@@](C)(c2cc(NC(=O)c3ncc(F)cc3F)ccc2F)N=C(N)O1
5 | < 30 µM | COc1cnc(C(=O)Nc2ccc(F)c([C@]3(C)C=C(C)OC(N)=N3)c2)cn1
6 | < 30 µM | CC1=C[C@@](C)(c2cc(NC(=O)c3ccc(C(F)(F)F)cn3)ccc2F)N=C(N)O1
7 | < 30 µM | C[C@@]1(c2cc(NC(=O)c3ccc(C#N)cn3)ccc2Cl)CCOC(N)=N1
